Assays:
[1] = target: Ku70/80 (Homo sapiens, UniProt P12956+P13010); test: Ku–DNA binding EMSA; conditions: for IC50: Ku70/80 (IC50), purified Ku70/80, direct DNA binding activity by EMSA
[2] = target: DNA-PK (Homo sapiens, UniProt P12956+P13010); test: DNA-PK phosphoryl-transferase catalytic; assay type: biochemical
[3] = CF3 in place of CH3 on pyrazolone ring

Chain of Ku70/80 (P12956 whole entry): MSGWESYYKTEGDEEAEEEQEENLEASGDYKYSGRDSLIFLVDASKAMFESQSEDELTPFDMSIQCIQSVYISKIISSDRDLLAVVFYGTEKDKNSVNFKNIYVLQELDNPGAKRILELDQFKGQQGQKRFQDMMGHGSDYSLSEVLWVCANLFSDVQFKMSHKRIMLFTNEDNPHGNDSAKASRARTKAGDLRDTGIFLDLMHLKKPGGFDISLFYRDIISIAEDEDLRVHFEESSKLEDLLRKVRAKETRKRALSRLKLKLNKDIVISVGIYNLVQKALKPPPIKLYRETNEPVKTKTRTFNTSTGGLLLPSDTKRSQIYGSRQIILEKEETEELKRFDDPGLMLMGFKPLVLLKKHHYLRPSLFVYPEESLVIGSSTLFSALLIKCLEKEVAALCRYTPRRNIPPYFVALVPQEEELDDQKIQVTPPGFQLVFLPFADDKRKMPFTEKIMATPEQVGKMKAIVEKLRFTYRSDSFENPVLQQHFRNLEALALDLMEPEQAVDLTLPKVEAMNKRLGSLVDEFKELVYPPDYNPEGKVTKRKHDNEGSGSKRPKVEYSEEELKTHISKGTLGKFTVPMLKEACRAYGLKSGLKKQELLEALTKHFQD
Chain of Ku70/80 (P13010 whole entry): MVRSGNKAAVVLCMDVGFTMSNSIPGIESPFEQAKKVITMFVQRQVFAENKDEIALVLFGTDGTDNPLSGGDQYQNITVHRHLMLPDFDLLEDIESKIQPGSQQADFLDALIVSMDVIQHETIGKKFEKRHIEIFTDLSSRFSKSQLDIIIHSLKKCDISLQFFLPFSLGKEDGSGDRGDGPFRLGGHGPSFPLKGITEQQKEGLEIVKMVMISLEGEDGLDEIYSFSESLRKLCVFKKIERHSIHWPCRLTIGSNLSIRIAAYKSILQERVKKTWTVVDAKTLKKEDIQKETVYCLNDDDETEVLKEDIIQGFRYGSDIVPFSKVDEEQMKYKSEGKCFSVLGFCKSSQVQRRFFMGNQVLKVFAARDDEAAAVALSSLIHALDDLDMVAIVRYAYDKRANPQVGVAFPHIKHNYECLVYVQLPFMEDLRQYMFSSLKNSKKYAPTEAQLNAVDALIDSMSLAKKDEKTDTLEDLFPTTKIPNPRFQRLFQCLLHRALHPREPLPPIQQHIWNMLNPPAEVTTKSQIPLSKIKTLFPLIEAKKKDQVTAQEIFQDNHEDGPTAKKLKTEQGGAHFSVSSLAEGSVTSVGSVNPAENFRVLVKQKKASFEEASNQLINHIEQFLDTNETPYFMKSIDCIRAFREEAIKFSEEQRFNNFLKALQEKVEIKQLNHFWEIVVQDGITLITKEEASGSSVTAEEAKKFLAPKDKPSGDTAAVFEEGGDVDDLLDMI
Chain of DNA-PK (P12956 whole entry): as the sequence (P12956 whole entry) above
Chain of DNA-PK (P13010 whole entry): as the sequence (P13010 whole entry) above

Structure (SMILES)	IC50 [1]	IC50 [2]	increase in DNA-PK inhibitory activity [2, 3]	increase in Ku inhibitory activity [1, 3]	Ku inhibitory activity (qualitative) ([1]; carboxylic acid replaced by nitrile)
CC1=NN(c2cccc(C(=O)O)c2)C(=O)/C1=C\c1ccc(-c2ccc(Cl)c(C(=O)NCc3ccccc3)c2)o1 [Compound 37, (Z)-3-(4-((5-(3-(Benzylcarbamoyl)-4-chlorophenyl)furan-2-yl)methylene)-3-methyl-5-oxo-4,5-dihydro-1H-pyrazol-1-yl)benzoic acid]	8.22 ± 0.45 µM	0.83 ± 0.09 µM	–	–	–
CC1=NN(c2cccc(C(=O)O)c2)C(=O)/C1=C\c1ccc(-c2ccc(Cl)c(C(=O)NCC3CCCCC3)c2)o1 [Compound 39, (Z)-3-(4-((5-(4-Chloro-3-((cyclohexylmethyl)carbamoyl)phenyl)furan-2-yl)methylene)-3-methyl-5-oxo-4,5-dihydro-1H-pyrazol-1-yl)benzoic acid]	22.6 ± 4.4 µM	–	–	–	–
CC1=NN(c2cccc(C(=O)O)c2)C(=O)/C1=C\c1ccc(-c2ccc(Cl)c(C(=O)NCC3CC3)c2)s1 [Compound 42, (Z)-3-(4-((5-(4-Chloro-3-((cyclopropylmethyl)carbamoyl)phenyl)thiophen-2-yl)methylene)-3-methyl-5-oxo-4,5-dihydro-1H-pyrazol-1-yl)benzoic acid]	11.1 ± 0.76 µM	3.04 ± 0.7 µM	–	–	–
COc1cccc(NC(=O)c2cc(-c3ccc(/C=C4\C(=O)N(c5cccc(C(=O)O)c5)N=C4C)[nH]3)ccc2Cl)c1 [Compound 44, (Z)-3-(4-((5-(4-Chloro-3-((3-methoxyphenyl)carbamoyl)phenyl)-1H-pyrrol-2-yl)methylene)-3-methyl-5-oxo-4,5-dihydro-1H-pyrazol-1-yl)benzoic acid]	9.77 ± 4.16 µM	1.57 ± 0.73 µM	–	–	–
CC1=NN(c2cccc(C(=O)O)c2)C(=O)/C1=C\c1ccc(-c2ccc(Cl)c(C(=O)Nc3cccc(OC(F)(F)F)c3)c2)[nH]1 [Compound 45, (Z)-3-(4-((5-(4-Chloro-3-((3-(trifluoromethoxy)phenyl)carbamoyl)phenyl)-1H-pyrrol-2-yl)methylene)-3-methyl-5-oxo-4,5-dihydro-1H-pyrazol-1-yl)benzoic acid]	6.9 ± 1 µM	0.53 ± 0.18 µM	–	–	–
COc1cccc(CNC(=O)c2cc(-c3ccc(/C=C4\C(=O)N(c5ccc(C(=O)O)cc5)N=C4C)o3)ccc2Cl)c1 [Compound 47, (Z)-4-(4-((5-(4-Chloro-3-((3-methoxybenzyl)carbamoyl)phenyl)furan-2-yl)methylene)-3-methyl-5-oxo-4,5-dihydro-1H-pyrazol-1-yl)benzoic acid]	> 25 µM	0.48 ± 0.048 µM	–	–	–
CC1=NN(c2ccc(C(=O)O)cc2)C(=O)/C1=C\c1ccc(-c2ccc(Cl)c(C(=O)NCc3ccccc3)c2)o1 [Compound 48, (Z)-4-(4-((5-(3-(Benzylcarbamoyl)-4-chlorophenyl)furan-2-yl)methylene)-3-methyl-5-oxo-4,5-dihydro-1H-pyrazol-1-yl)benzoic acid]	22.4 ± 4.19 µM	0.48 ± 0.016 µM	–	–	–
O=C(O)c1cccc(N2N=C(C(F)(F)F)/C(=C/c3ccc(-c4ccc(Cl)c(C(=O)NCc5ccc(F)cc5)c4)o3)C2=O)c1 [Compound 52, (Z)-3-(4-((5-(4-Chloro-3-((4-fluorobenzyl)carbamoyl)phenyl)furan-2-yl)methylene)-5-oxo-3-(trifluoromethyl)-4,5-dihydro-1H-pyrazol-1-yl)benzoic acid]	9.15 ± 0.68 µM	0.25 µM	–	–	–
COc1ccc(NC(=O)c2cc(-c3ccc(CC4C(=O)N(c5cccc(C(=O)O)c5)N=C4C)o3)ccc2Cl)cc1OC (centres unmarked) [Compound 54, 3-(4-((5-(4-Chloro-3-((3,4-dimethoxyphenyl)carbamoyl)phenyl)furan-2-yl)methyl)-3-methyl-5-oxo-4,5-dihydro-1H-pyrazol-1-yl)benzoic acid]	9.97 ± 0.4 µM	1.12 ± 0.17 µM	–	–	–
CC1=NN(c2cccc(C(=O)O)c2)C(=O)C1Cc1ccc(-c2ccc(Cl)c(C(=O)NCc3ccc(F)cc3)c2)s1 (centres unmarked) [Compound 60, 3-(4-((5-(4-Chloro-3-((4-fluorobenzyl)carbamoyl)phenyl)thiophen-2-yl)methyl)-3-methyl-5-oxo-4,5-dihydro-1H-pyrazol-1-yl)benzoic acid]	4.1 ± 0.3 µM	2.66 ± 1.74 µM	–	–	–
COc1cccc(NC(=O)c2cc(-c3ccc(/C=C4\C(=O)N(c5ccc(S(N)(=O)=O)cc5)N=C4C)o3)ccc2Cl)c1 [Compound 67, (Z)-2-Chloro-N-(3-methoxyphenyl)-5-(5-((3-methyl-5-oxo-1-(4-sulfamoylphenyl)-1,5-dihydro-4H-pyrazol-4-ylidene)methyl)furan-2-yl)benzamide]	11.3 ± 2.16 µM	1.41 ± 0.27 µM	–	–	–

Further lines, with some results ahead:

IC50 [1]	IC50 [2]	increase in DNA-PK inhibitory activity [2, 3]	increase in Ku inhibitory activity [1, 3]	Structure (SMILES)	Ku inhibitory activity (qualitative) ([1]; carboxylic acid replaced by nitrile)
16.4 ± 3.94 µM	–	–	–	O=C(O)c1cccc(N2N=C(C(F)(F)F)/C(=C/c3ccc(-c4ccc(Cl)c(C(=O)O)c4)o3)C2=O)c1 [Compound 16, (Z)-5-(5-((1-(3-carboxyphenyl)-5-oxo-3-(trifluoromethyl)-1,5-dihydro-4H-pyrazol-4-ylidene)methyl)furan-2-yl)-2-chlorobenzoic acid]	–
3.55 ± 0.4 µM	1.74 ± 0.61 µM	–	–	CC1=NN(c2cccc(C(=O)O)c2)C(=O)/C1=C\c1ccc(-c2ccc(Cl)c(C(=O)NCc3ccccc3Cl)c2)o1 [Compound 38, (Z)-3-(4-((5-(4-Chloro-3-((2-chlorobenzyl)carbamoyl)phenyl)furan-2-yl)methylene)-3-methyl-5-oxo-4,5-dihydro-1H-pyrazol-1-yl)benzoic acid]	–
7.18 ± 2.24 µM	1.72 ± 0.18 µM	–	–	COc1cccc(NC(=O)c2cc(-c3ccc(/C=C4\C(=O)N(c5cccc(C(=O)O)c5)N=C4C)s3)ccc2Cl)c1 [Compound 40, (Z)-3-(4-((5-(4-Chloro-3-((3-methoxyphenyl)carbamoyl)phenyl)thiophen-2-yl)methylene)-3-methyl-5-oxo-4,5-dihydro-1H-pyrazol-1-yl)benzoic acid]	–
9.04 ± 0.36 µM	0.53 ± 0.07 µM	–	–	COc1cccc(NC(=O)c2cc(-c3ccc(/C=C4\C(=O)N(c5ccc(C(=O)O)cc5)N=C4C)s3)ccc2Cl)c1 [Compound 41, (Z)-4-(4-((5-(4-Chloro-3-((3-methoxyphenyl)carbamoyl)phenyl)thiophen-2-yl)methylene)-3-methyl-5-oxo-4,5-dihydro-1H-pyrazol-1-yl)benzoic acid]	–
10.1 ± 1.4 µM	3.24 µM	–	–	CC1=NN(c2cccc(C(=O)O)c2)C(=O)/C1=C\c1ccc(-c2ccc(Cl)c(C(=O)NCc3ccc(F)cc3)c2)s1 [Compound 43, (Z)-3-(4-((5-(4-Chloro-3-((4-fluorobenzyl)carbamoyl)phenyl)thiophen-2-yl)methylene)-3-methyl-5-oxo-4,5-dihydro-1H-pyrazol-1-yl)benzoic acid]	–
> 25 µM	2.5 µM	–	–	CC1=NN(c2ccc(C(=O)O)cc2)C(=O)/C1=C\c1ccc(-c2ccc(Cl)c(C(=O)NCc3cccnc3)c2)o1 [Compound 49, (Z)-4-(4-((5-(4-Chloro-3-((pyridin-3-ylmethyl)carbamoyl)phenyl)furan-2-yl)methylene)-3-methyl-5-oxo-4,5-dihydro-1H-pyrazol-1-yl)benzoic acid]	–
3.36 ± 0.52 µM	–	~20 fold	2 fold	COc1cccc(NC(=O)c2cc(-c3ccc(/C=C4\C(=O)N(c5cccc(C(=O)O)c5)N=C4C(F)(F)F)o3)ccc2Cl)c1 [Compound 50, (Z)-3-(4-((5-(4-Chloro-3-((3-methoxyphenyl)carbamoyl)phenyl)furan-2-yl)methylene)-5-oxo-3-(trifluoromethyl)-4,5-dihydro-1H-pyrazol-1-yl)benzoic acid]	–
11.4 ± 8.26 µM	0.35 µM	–	–	O=C(O)c1cccc(N2N=C(C(F)(F)F)/C(=C/c3ccc(-c4ccc(Cl)c(C(=O)NCC5CC5)c4)o3)C2=O)c1 [Compound 51, (Z)-3-(4-((5-(4-Chloro-3-((cyclopropylmethyl)carbamoyl)phenyl)furan-2-yl)methylene)-5-oxo-3-(trifluoromethyl)-4,5-dihydro-1H-pyrazol-1-yl)benzoic acid]	–
7.67 ± 2.95 µM	0.808 ± 0.037 µM	–	–	COc1cccc(NC(=O)c2cc(-c3ccc(CC4C(=O)N(c5ccc(C(=O)O)cc5)N=C4C)o3)ccc2Cl)c1 (centres unmarked) [Compound 55, 4-(4-((5-(4-Chloro-3-((3-methoxyphenyl)carbamoyl)phenyl)furan-2-yl)methyl)-3-methyl-5-oxo-4,5-dihydro-1H-pyrazol-1-yl)benzoic acid]	–
12.4 ± 3.8 µM	0.49 ± 0.08 µM	–	–	COc1cccc(CNC(=O)c2cc(-c3ccc(CC4C(=O)N(c5ccc(C(=O)O)cc5)N=C4C)o3)ccc2Cl)c1 (centres unmarked) [Compound 56, 4-(4-((5-(4-Chloro-3-((3-methoxybenzyl)carbamoyl)phenyl)furan-2-yl)methyl)-3-methyl-5-oxo-4,5-dihydro-1H-pyrazol-1-yl)benzoic acid]	–
6.09 ± 0.36 µM	0.4 ± 0.04 µM	–	–	COc1cccc(NC(=O)c2cc(-c3ccc(CC4C(=O)N(c5cccc(C(=O)O)c5)N=C4C)s3)ccc2Cl)c1 (centres unmarked) [Compound 57, 3-(4-((5-(4-Chloro-3-((3-methoxyphenyl)carbamoyl)phenyl)thiophen-2-yl)methyl)-3-methyl-5-oxo-4,5-dihydro-1H-pyrazol-1-yl)benzoic acid]	–
14.2 ± 0.21 µM	–	–	–	O=C(O)c1cccc(N2N=C(C(F)(F)F)C(Cc3ccc(-c4ccc(Cl)c(C(=O)NCC5CC5)c4)o3)C2=O)c1 (centres unmarked) [Compound 62, 3-(4-((5-(4-Chloro-3-((cyclopropylmethyl)carbamoyl)phenyl)furan-2-yl)methyl)-5-oxo-3-(trifluoromethyl)-4,5-dihydro-1H-pyrazol-1-yl)benzoic acid]	–
> 25 µM	–	–	–	CC1=NN(c2ccc(S(N)(=O)=O)cc2)C(=O)/C1=C\c1ccc(-c2ccc(Cl)c(C(=O)NCC3CC3)c2)o1 [Compound 68, (Z)-2-Chloro-N-(cyclopropylmethyl)-5-(5-((3-methyl-5-oxo-1-(4-sulfamoylphenyl)-1,5-dihydro-4H-pyrazol-4-ylidene)methyl)furan-2-yl)benzamide]	–
> 25 µM	–	–	–	COc1cccc(NC(=O)c2cc(-c3ccc(/C=C4\C(=O)N(c5cccc(C#N)c5)N=C4C)o3)ccc2Cl)c1 [Compound 74, (Z)-2-chloro-5-(5-((1-(3-cyanophenyl)-3-methyl-5-oxo-1,5-dihydro-4H-pyrazol-4-ylidene)methyl)furan-2-yl)-N-(3-methoxyphenyl)benzamide]	complete abolition of Ku inhibitory activity

— article PMC12452633 (RSC Medicinal Chemistry, 2025)
